According to US20100003217A1, “Compounds and Pharmaceutical Compositions for the Treatment of Viral Infections” (priority 2008, published 2010):
“And” between values parts separate entries of the source, which are not always exact repeats. Identical values can stand only once.

System: rat primary hepatocytes
Assay: Metabolic disposition of [^14C]-Compound 1 and [^14C]-2′-C-methyl guanosine in rat primary hepatocytes (incubation medium, cellular extracts, nucleotide levels)
Format: in vitro ADME, Sprague Dawley rat
Details: for AUC (area under the concentration-time curve) of Compound 7 levels: 0-24 h
How it was run: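 Rat, monkey or human primary hepatocytes on collagen I plates (1.6 million cells/mL) were incubated at 37° C with 1 or 10 μM C-8 [^14C]-labelled compound or 2′-C-methyl guanosine for 1, 4, 8 and 24 hours. Medium and 70% methanol cell extracts were analysed by LSC and radio-HPLC. Nucleotides were identified by alkaline phosphatase treatment and retention-time matching to standards.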

[1] = rat hepatocytes Rs448, 10 μM [^14C]-2′-C-methyl guanosine, 1 h
[2] = rat hepatocytes Rs448, 10 μM [^14C]-2′-C-methyl guanosine, 4 h
[3] = rat hepatocytes Rs448, 10 μM [^14C]-2′-C-methyl guanosine, 8 h
[4] = rat hepatocytes Rs448, 10 μM [^14C]-2′-C-methyl guanosine, 24 h
[5] = rat hepatocytes Rs458, 1 μM [^14C]-2′-C-methyl guanosine, 1 h
[6] = rat hepatocytes Rs458, 1 μM [^14C]-2′-C-methyl guanosine, 8 h
[7] = rat hepatocytes Rs458, 1 μM [^14C]-2′-C-methyl guanosine, 24 h
[8] = rat hepatocytes Rs458, 10 μM [^14C]-2′-C-methyl guanosine, 1 h
[9] = rat hepatocytes Rs458, 10 μM [^14C]-2′-C-methyl guanosine, 4 h
[10] = rat hepatocytes Rs458, 10 μM [^14C]-2′-C-methyl guanosine, 8 h
[11] = rat hepatocytes Rs458, 10 μM [^14C]-2′-C-methyl guanosine, 24 h

metabolites observed in cellular extracts (% of total radioactivity) (rat hepatocytes (Rs458), 1 μM [^14C]-Compound 1, 24 h): 62.1%
Compound 7 AUC0-24h (rat hepatocytes (n=1), 1 μM [^14C]-2′-C-methyl guanosine): 458 pmol*h/million cells
Compound 7 AUC0-24h (rat hepatocytes (n=1), 1 μM [^14C]-Compound 1): 3,881 pmol*h/million cells
2′-C-methyl guanosine nucleotide levels in cellular extracts (rat hepatocytes Rs448, 10 μM [^14C]-2′-C-methyl guanosine, 0 h): 0 pmol/million cells
AUC (area under the concentration-time curve) of Compound 7 levels (rat hepatocytes Rs448, 10 μM [^14C]-2′-C-methyl guanosine): 5906 pmol * hr/million cells
2′-C-methyl guanosine nucleotide levels in cellular extracts [1]: 28.0 pmol/million cells
Major metabolites observed in cellular extracts (% of total radioactivity) [1]: 5.21 % of total radioactivity
2′-C-methyl guanosine nucleotide levels in cellular extracts [2]: 141 pmol/million cells
Major metabolites observed in cellular extracts (% of total radioactivity) [2]: 17.9 % of total radioactivity
Major metabolites observed in cellular extracts (% of total radioactivity) [3]: 24.1 % of total radioactivity
2′-C-methyl guanosine nucleotide levels in cellular extracts [4]: 347 pmol/million cells
Major metabolites observed in cellular extracts (% of total radioactivity) [4]: 35.6 % of total radioactivity
2′-C-methyl guanosine nucleotide levels in cellular extracts (rat hepatocytes Rs448, 10 μM [^14C]-Compound 1, 0 h): 0 pmol/million cells
AUC (area under the concentration-time curve) of Compound 7 levels (rat hepatocytes Rs448, 10 μM [^14C]-Compound 1): 31568 pmol * hr/million cells
2′-C-methyl guanosine nucleotide levels in cellular extracts (rat hepatocytes Rs448, 10 μM [^14C]-Compound 1, 1 h): 580 pmol/million cells
2′-C-methyl guanosine nucleotide levels in cellular extracts (rat hepatocytes Rs448, 10 μM [^14C]-Compound 1, 4 h): 1429 pmol/million cells
2′-C-methyl guanosine nucleotide levels in cellular extracts (rat hepatocytes Rs448, 10 μM [^14C]-Compound 1, 8 h): 1791 pmol/million cells
2′-C-methyl guanosine nucleotide levels in cellular extracts (rat hepatocytes Rs448, 10 μM [^14C]-Compound 1, 24 h): 937 pmol/million cells
AUC (area under the concentration-time curve) of Compound 7 levels (rat hepatocytes Rs458, 1 μM [^14C]-2′-C-methyl guanosine): 458 pmol * hr/million cells
2′-C-methyl guanosine nucleotide levels in cellular extracts [5]: 2.60 pmol/million cells
Major metabolites observed in cellular extracts (% of total radioactivity) [5]: 4.56 % of total radioactivity
2′-C-methyl guanosine nucleotide levels in cellular extracts [6]: 20.1 pmol/million cells
Major metabolites observed in cellular extracts (% of total radioactivity) [6]: 26.1 % of total radioactivity
2′-C-methyl guanosine nucleotide levels in cellular extracts [7]: 27.0 pmol/million cells
Major metabolites observed in cellular extracts (% of total radioactivity) [7]: 34.1 % of total radioactivity
AUC (area under the concentration-time curve) of Compound 7 levels (rat hepatocytes Rs458, 1 μM [^14C]-Compound 1): 3881 pmol * hr/million cells
2′-C-methyl guanosine nucleotide levels in cellular extracts (rat hepatocytes Rs458, 10 μM [^14C]-2′-C-methyl guanosine, 0 h): 0 pmol/million cells
AUC (area under the concentration-time curve) of Compound 7 levels (rat hepatocytes Rs458, 10 μM [^14C]-2′-C-methyl guanosine): 5384 pmol * hr/million cells
2′-C-methyl guanosine nucleotide levels in cellular extracts [8]: 23.0 pmol/million cells
Major metabolites observed in cellular extracts (% of total radioactivity) [8]: 4.42 % of total radioactivity
2′-C-methyl guanosine nucleotide levels in cellular extracts [9]: 113 pmol/million cells
Major metabolites observed in cellular extracts (% of total radioactivity) [9]: 16.2 % of total radioactivity
2′-C-methyl guanosine nucleotide levels in cellular extracts [10]: 239 pmol/million cells
Major metabolites observed in cellular extracts (% of total radioactivity) [10]: 27.0 % of total radioactivity
2′-C-methyl guanosine nucleotide levels in cellular extracts [11]: 319 pmol/million cells
Major metabolites observed in cellular extracts (% of total radioactivity) [11]: 33.9 % of total radioactivity
2′-C-methyl guanosine nucleotide levels in cellular extracts (rat hepatocytes Rs458, 10 μM [^14C]-Compound 1, 0 h): 0 pmol/million cells
AUC (area under the concentration-time curve) of Compound 7 levels (rat hepatocytes Rs458, 10 μM [^14C]-Compound 1): 28123 pmol * hr/million cells
2′-C-methyl guanosine nucleotide levels in cellular extracts (rat hepatocytes Rs458, 10 μM [^14C]-Compound 1, 1 h): 534 pmol/million cells
2′-C-methyl guanosine nucleotide levels in cellular extracts (rat hepatocytes Rs458, 10 μM [^14C]-Compound 1, 4 h): 1347 pmol/million cells
2′-C-methyl guanosine nucleotide levels in cellular extracts (rat hepatocytes Rs458, 10 μM [^14C]-Compound 1, 8 h): 1618 pmol/million cells
2′-C-methyl guanosine nucleotide levels in cellular extracts (rat hepatocytes Rs458, 10 μM [^14C]-Compound 1, 24 h): 770 pmol/million cells
Compound 7 maximal levels (rat hepatocytes, 1 μM [^14C]-Compound 1): 103 pmol/million cells
Maximum Compound 7 levels (rat hepatocytes, 10 μM [^14C]-2′-C-methyl guanosine, at 24 hours): 249 pmol/million cells
Compound 7 AUC0-24h (rat hepatocytes, 10 μM [^14C]-Compound 1): 29,846 pmol*h/million cells
Compound 7 maximum levels (rat hepatocytes, 10 μM [^14C]-Compound 1, at 8 hours): 1,705 pmol/million cells
SMILES: C[C@@]1(O)[C@H](O)[C@@H](COP(=O)(O)OP(=O)(O)OP(=O)(O)O)O[C@H]1n1cnc2c(=O)[nH]c(N)nc21 [Compound 7, [(2R)-2-methyl-β-D-ribofuranosyl]guanine 5′-triphosphate]
2′-C-methyl guanosine nucleotide levels in cellular extracts [3]: 258 pmol/million cells and 287 pmol/million cells
